Results from paper PMC11508334, “In Vitro Evaluation of New 5-Nitroindazolin-3-one Derivatives as Promising Agents against Trypanosoma cruzi” (International Journal of Molecular Sciences, 2024).

Tests used:
[1] = Cyclic voltammetry, reduction of nitro group; type: physicochemical
Method: Cyclic Voltammetry (CV) was carried out using a Metrohm Autolab instrument model PGSTAT204, using dimethyl sulfoxide (DMSO) as the solvent (1 mM solutions), tetrabutylammonium perchlorate (0.1 M TBAP) as the supporting electrolyte, a hanging drop mercury electrode (HDME) as the working electrode, Ag/AgCl (3M KCl) as the reference electrode, and a graphite rod as the counter electrode. All measurements were performed after bubbling with nitrogen (N2) for 10 min.
Using Nicholson’s procedure, the Ipa/Ipc values (RNO2/RNO2^•−) were measured from each cyclic voltammogram with a scan rate between 0.1 and 2.5 V/s.

RAW 264.7 cells = assay: Cytotoxicity MTT assay on RAW 264.7 cells; type: cell-based; settings: in vitro cytotoxicity, murine RAW 264.7 macrophages
Method: The compounds under study, dissolved in dimethylsulfoxide (DMSO), were added to the culture media at 10–200 μM. RAW 264.7 cells were cultured in 96-well plates (5 × 10^4 cells per well), and 100 μL of 0.5 mg/mL MTT was added to each well. The DMSO final concentration was less than 0.1% v/v. After incubation for 4 h at 37 °C, the generated water-insoluble formazan dye was dissolved by adding 100 μL of 10% w/v sodium dodecyl sulfate (SDS) in 0.01 M HCl. The plates were further incubated overnight at 37 °C; […] 0.5% of Triton X-100 was added as a positive control. The plates were further incubated overnight at 37 °C, and the optical density of the wells was determined using a microplate reader (Asys Expert Plus©, Asys Hitachi, Vienna, Austria) at 570 nm. Under these conditions, the optical density is directly proportional to the viable cell number in each well. All experiments were performed at least thrice and data were reported as means and their standard deviations from triplicate cultures. Results are reported as IC50 regarding the control (uninfected cells in culture medium)

[2] = tested on: T. cruzi epimastigote stage (Dm28c strain); assay: Epimastigotes viability study (MTT); type: cell-based, Trypanosoma cruzi
Method: The trypanocidal activity was evaluated against the T. cruzi epimastigote stage (Dm28c strain). It was measured through the MTT assay using 0.22 mg/mL phenazine methosulfate (as an electron carrier). T. cruzi epimastigote from the author's collection (Programa de Farmacología Molecular y Clínica, Facultad de Medicina, Universidad de Chile, Santiago, Chile) were grown at 28 °C in liver infusion tryptase (LIT) medium, as reported earlier, but replacing blood with 4 μM hemin. […] fetal bovine serum (FBS) was added to a final concentration of 10% v/v. In this colorimetric assay for testing the trypanocidal activity, the compounds were dissolved in DMSO. They were added to 3 × 10^6 parasites/mL at 100 μM final concentrations in RPMI 1640 culture medium without phenol red for 24 h at 28 °C. The final concentration of DMSO was less than 0.1% v/v. […] The MTT assay, which was described previously, determined the viability of the epimastigotes.

Dm28c trypomastigotes [3] = assay: Trypomastigote viability study (MTT); type: cell-based, Trypanosoma cruzi
Method: Vero cells (ATCC CCL-81) were infected with Dm28c trypomastigotes at a 1:3 (cell: parasite) ratio. T. cruzi trypomastigotes were initially obtained from primary cultures of peritoneal macrophage from chagasic mice. […] Vero cell cultures were then infected with trypomastigotes and incubated at 37 °C in humidified air and 5% CO2 for 5–7 days. After that time, the culture medium was collected and centrifuged at 500× g for 5 min. The trypomastigote-containing pellet was re-suspended in RPMI 1640 supplemented with inactivated FBS and penicillin–streptomycin at a final 1 × 10^7 parasites/mL density. Trypomastigote viability assays were performed using the MTT reduction method as described previously. Then, 1 × 10^7 parasites/mL was incubated in RPMI 1640 with inactivated FBS at 37 °C for 24 h with or without the studied compounds.

[4] = tested on: trypomastigotes of T. cruzi; assay: Plasmatic membrane permeability assay (SYTOX Green) on trypomastigotes; type: cell-based, Trypanosoma cruzi; settings: compound at IC50, 1 h
Method: Late growth-phase trypomastigotes of T. cruzi (3 × 10^6/well) were washed and incubated in the dark with 1 μM SYTOX Green probe (Molecular Probes) in HANKS′ balanced salts solution (HBSS; Sigma-Aldrich) supplemented with 10 mM D-glucose (HBSS + Glu). The test compound was added at IC50, and fluorescence was measured after 1 h of treatment. The maximum permeabilization was obtained with 0.5% Triton X-100. Fluorescence intensity was determined using Varioskan™ LUX multimode microplate reader (ThermoFisher Scientific, Waltham, MA, USA), with excitation and emission wavelengths of 485 and 520 nm, respectively. The following internal controls were used in the evaluation: (i) the background fluorescence of the compound at the respective wavelengths and (ii) the possible interference of DMSO. Samples were tested in triplicate.

[5] = tested on: Dm28c trypomastigote of T. cruzi; assay: Mitochondrial membrane potential (TMRM incorporation); type: cell-based, Trypanosoma cruzi; settings: trypomastigotes, compound at IC50, 3 h; compared to negative control
Method: Mitochondrial membrane potential (ψm) was determined by the incorporation of the fluorescent probe tetramethylrhodamine methyl ester (TMRM). […] Then, carbonylcyanide-m-chlorophenylhydrazone (CCCP, 10 µM) was added as a control and incubated at 37 °C in humidified air and 5% CO2 for 3 h. Parasites were washed with phosphate-buffered saline (pH 7.4), and suspensions were incubated with TMRM (50 nM) for 15 min. Fluorescence measurements determined the incorporation of the probe at an excitation wavelength of 550 nm and an emission of 590 nm. All the assays were performed in darkness.

[6] = tested on: trypomastigote form of T. cruzi; assay: Analysis of ATP levels (CellTiter-Glo); type: cell-based, Trypanosoma cruzi; settings: trypomastigotes; relative to negative control
Method: The CellTiter-Glo® Luminescent Cell Viability Assay (Promega, Fitchburg, WI, USA) was used to detect variations in ATP levels. After incubation, treated parasites were centrifuged (6000 rpm, 10 min, 4 °C) and treated according to the manufacturer’s instructions. Luminescence was determined using the Varioskan™ LUX multi-mode microplate reader (ThermoFisher Scientific). Results were expressed as a percentage relative to the negative control without treatment. Sodium azide (20 mM NaN3 for 3 h) was added as a positive control and benznidazole as a reference treatment. (1) %relative control=luminescence sample/luminescence control∗100

Dm28c trypomastigotes [7] = assay: Intracellular ROS generation (DCFH2-DA); type: cell-based, Trypanosoma cruzi; settings: compound at IC50, 40 min
Method: ROS detection was performed using the 2′, 7′-dichlorodihydrofluorescein diacetate (DCFH2-DA) method. For Dm28c trypomastigotes, 96-well plates were seeded with 10 × 10^6 trypomastigotes/mL in RPMI medium without phenol red and supplemented with 5% SFBi. Cultures were incubated with a 20 μM DCFH2-DA solution for 15 min at 37 °C. Then, they were centrifuged at 6000 rpm and washed 2 times with phosphate-buffered saline at pH 7.4. The DCFH2-DA-loaded trypomastigotes were then transferred to a Nunc® fluorescence 96-well plate. […] The area under fluorescence increase over time curves were determined using Origin 8 software 9.2, with areas normalized to control. Results are the means ± SD of three independent experiments.

[8] = tested on: trypomastigote form of T. cruzi (Dm28c strain); assay: ESR spin trapping with DMPO in parasite media; type: cell-based, Trypanosoma cruzi; settings: trypomastigotes, NADPH, aerobic conditions
Method: The free radical production capacity of the new complexes was assessed in the parasite by ESR using 5,5- dimethyl-1-pirroline-N-oxide (DMPO) for spin trapping. Each tested compound was dissolved in DMSO (spectroscopy grade) (ca. 1 mM) and the solution was added to a mixture containing the trypomastigote form of T. cruzi (Dm28c strain, final protein concentration 4–8 mg/mL) and DMPO (final concentration 250 mM). The mixture was transferred to a 50 μL capillary. ESR spectra were recorded in the X band (9.85 GHz) using a Bruker ECS 106 spectrometer with a rectangular cavity and 50 KHz field modulation. All the spectra were registered in the same scale after 15 scans.

−EpaIII ([1]; anodic peak potential of couple IIIc/IIIa, given with inverted sign, vs. Ag/AgCl electrode in DMSO): 1.32 V | −EpcIII ([1]; cathodic peak potential of couple IIIc/IIIa, given with inverted sign, vs. Ag/AgCl electrode in DMSO): 1.36 V | Ipa/Ipc ([1]; current ratio RNO2/RNO2•−, couple IIIc/IIIa, DMSO): 0.62 | −E1/2 ([1]; half-wave potential of couple IIIc/IIIa, given with inverted sign, vs. Ag/AgCl electrode in DMSO): 1.34 V | IC50 ([2]; T. cruzi Dm28c epimastigotes, 24 h, MTT): 1.1 ± 0.3 µM
SMILES: O=c1c2cc([N+](=O)[O-])ccc2[nH]n1Cc1ccccn1 [Compound 5a, 5-nitro-2-picolyl-indazolin-3-one]
IC50 (RAW 264.7 cells): 68.9 ± 0.7 µM | SI Epimastigote ([2]; Selectivity Index IC50 macrophages RAW 264.7/IC50 epimastigotes Dm28c): 62.6 | SI Trypomastigote (Dm28c trypomastigotes [3]; Selectivity Index IC50 macrophages RAW 264.7/IC50 trypomastigotes Dm28c): 12.8 | IC50 (Dm28c trypomastigotes [3]; T. cruzi Dm28c trypomastigotes, 24 h, MTT): 5.4 ± 0.7 µM | alteration of plasma membrane permeability (SYTOX Green incorporation) [4]: alter plasma membrane permeability | effect on mitochondrial membrane potential (ψm) [5]: statistically significant impact | ATP levels [6]: significantly reduced ATP levels | intracellular ROS (DCF fluorescence intensity) (Dm28c trypomastigotes [7]): most significant increase in fluorescence intensity | radical species detected by DMPO spin trapping [8]: generation of the hydroxyl radical
